{
  "source": "patent US10085955B2",
  "about": "“Methods and compositions for treatment of demyelinating diseases” (Pathologica LLC, priority 2013, dated 2018)",
  "key": {"[1]": {"test_system": "MOG-induced experimental autoimmune encephalomyelitis (EAE)", "assay": "Third MOG EAE protocol (MGBG, fingolimod and combination)", "format": "in vivo, C57BL/6 mice", "conditions": "MGBG 30 mpk twice-daily, fingolimod 0.1 mpk once-daily, or both", "description": "(§1) An experimental murine model of multiple sclerosis employing a myelin oligodendrocyte glycoprotein (MOG) peptide to induce experimental autoimmune encephalomyelitis (EAE) was employed to determine the efficacy of MGBG in preventing and treating that disease. Because of its many similarities to MS, EAE is commonly used to study pathogenesis of autoimmunity, CNS inflammation, demyelination, cell trafficking, and tolerance induction. EAE is characterized by paralysis (in some models the paralysis is remitting-relapsing), CNS inflammation and demyelination. EAE is mediated primarily by dendritic cells, myelin-specific T cells (e.g. Th1 and Th17), and M1 macrophages. B cells may also play a role in some models of EAE. Body weight also tracks disease progression. EAE is induced in C57BL/6 mice by immunization with MOG35-55 or MOG1-125 in CFA emulsion followed by administration of pertussis toxin (PTX) in PBS. The emulsion provides antigen which initiates expansion and differentiation of MOG-specific autoimmune T cells. PTX enhances EAE development by providing additional adjuvant and facilitating entrance of autoimmune T cells into the CNS.\n(§2) Chronic EAE develops in C57BL/6 mice after immunization with an emulsion of MOG35-55/CFA or MOG1-125/CFA followed by injection of pertussis toxin. This model is used to test the potential of compounds to prevent or mitigate EAE disease. It can be run with the compound dosed from the time of immunization (prophylactic treatment), or with the aim of reversing the course of disease and facilitating recovery by dosing the compound from the time of EAE onset (therapeutic treatment). The model uses female C57BL/6 mice of age 10 to 14 weeks at the start of the study. Typically, EAE develops 8-18 days after immunization. EAE development is usually followed for 4 weeks (28 days) after immunization.\n(§3) Clinically, EAE progression is scored on a scale of 0 to 5, wherein each score represents the following clinical observations:\n(§4) Inflammatory foci of approximately 20 cells were counted in each H&E stained section. When inflammatory infiltrates consisted of more than 20 cells, an estimate was made of how many foci of 20 cells were present.\n(§5) The demyelination score represents an estimate of demyelinated area for each section as follows:\nTen week old female C57BL/6 mice weighing 18-23 g (Taconic Farms) were divided into four groups: mock immunized (n=3) and three MOG-immunized groups receiving MGBG at 30 mpk BID (as the di-HCl monohydrate with a correction factor of 1.49), […] dose, or 0.9% saline vehicle BID (n=12 each). […]"}, "[2]": {"test_system": "MOG-induced experimental autoimmune encephalomyelitis (EAE)", "assay": "First MOG EAE protocol (murine multiple sclerosis model)", "format": "in vivo, C57BL/6 mice", "description": "as §1, §2\nIn prophylactic studies, treatment begins before disease onset, at the time of immunization and group assignment. Mice are assigned to treatment groups in a balanced manner to achieve groups with similar distributions of body weights. Prophylactic studies assess if treatment will affect the course of disease both before and after the first clinical signs of EAE. To compensate for the stress of treatment in prophylactic treatment studies and achieve the target disease severity, EAE may be induced with a higher dose of pertussis toxin than used in therapeutic studies. The dose of pertussis toxin is based on expected stress due to dosing (route, frequency, and formulation of vehicle).\nas §3, §4, §5\nUnless otherwise noted, statistical analysis was performed as follows: disease incidence compared using chi-square test; mean day of EAE onset, change in body weight, and number of apoptotic cells compared using 2-tailed Student's t-test; median day of EAE onset compared using Wilcoxon's survival test; mean maximum score (MMS), end score, and demyelination scores (LFB and H&E) compared using Wilcoxon's non-parametric test.\nTen week old female C57BL/6 mice weighing 18-23 g (Taconic Farms) were divided into four groups: mock immunized (n=3) and three MOG-immunized groups receiving MGBG at 30 mpk BID (as the di-HCl monohydrate with a correction factor of 1.49), fingolimod (FTY720) at 3 mpk QD with a second mock vehicle dose, or 0.9% saline vehicle BID (n=12 each). […]"}},
  "note": "“Also recorded” adds a separate entry of the source.",
  "data": [
    {"compound": "CC(/C=N/NC(=N)N)=N\\NC(=N)N", "note": "[MGBG, 1,1′ [methylethanediylidene]dinitrilodiguanidine]", "values": [
      {"measurement": "clinical scores / development of EAE", "setting": "[1]; third 28-day study", "value": "suppressed EAE comparably to 0.1 mpk fingolimod; also recorded: equivalently efficacious in preventing EAE development"},
      {"measurement": "cellular apoptosis in spinal cord", "setting": "[1]; third study", "value": "equivalently efficacious in reducing apoptosis"},
      {"measurement": "number of inflammatory foci in spinal cord", "setting": "[1]; third study", "value": "equivalently efficacious in reducing the number of inflammatory foci"},
      {"measurement": "spinal cord demyelination", "setting": "[1]; third study", "value": "equivalently efficacious in reducing demyelination"},
      {"measurement": "mean clinical score (scale 0 to 5)", "setting": "[2]; first 28-day study, MGBG 30 mpk BID, fingolimod 3 mpk QD, throughout/duration of experiment", "value": "below 1"},
      {"measurement": "body weight, mean percent of baseline (study start)", "setting": "[2]; first study, day 11", "value": "~115", "unit": "%"},
      {"measurement": "body weight, mean percent of baseline (study start)", "setting": "[2]; first study, day 24", "value": "about 108%"},
      {"measurement": "spinal cord histopathology (neuroinflammation, demyelination, apoptosis)", "setting": "[2]; first study, day 28", "value": "reduces histopathological signs of MS"},
      {"measurement": "day first clinical signs became evident", "setting": "[2]; first study, MGBG 30 mpk BID (vehicle day 10)", "value": 15, "unit": "days"}
    ]}
  ]
}
